Results as given in US9073945B2, “Alpha-IIb-beta-3 inhibitors and uses thereof” (THE ROCKEFELLER UNIVERSITY, priority 2006, dated 2015).
Positions of bridges follow the written chain, without caps; N, C: chain ends. Non-standard residues stand in square brackets, D forms with d. Residues, ends and D or L forms follow the SMILES beside them. hArg = N=C(N)NCCCC[C@H](N)C(=O)O; Mpa = O=C(O)CCS

Assays:
purified αIIbβ3 [1] = target: T1, purified αIIbβ3 (Homo sapiens, UniProt P05106+P08514); test: Priming of fibrinogen binding to purified αIIbβ3; conditions: eptifibatide 10 μM, RGDS 10 μM, Compounds 100 μM
T1 construct: purchased Enzyme Research Laboratories, South Bend, Ind
Experimental: (§1) Fibrinogen Binding to Purified αIIbβ3. The anti-β3 mAb 7H2 (10 μg/ml) is adsorbed to polystyrene microtiter plate wells overnight at 4° C., and wells are then blocked with 3.5% BSA for 1 h at 22° C. Purified αIIbβ3 (Enzyme Research Laboratories, South Bend, Ind.) is diluted in buffer A (50 mM Tris/HCl, 100 mM NaCl, 1 mM CaCl2, 1 mM MgCl2, 1% BSA, 0.0035% Triton X-100) to 10 μg/ml, and is allowed to adhere to wells coated with mAb 7H2 for 2 h at 37° C. Wells are then washed 3 times with buffer A. Fibrinogen, prepared in buffer A (20 μg/ml) in the presence or absence of mAb AP5 (60 μg/ml), is incubated in plate wells for 2 h at 37° C. with or without the Compounds or control solutions. Wells are washed 3 times with buffer A and then incubated with a horseradish peroxidase-conjugated polyclonal anti-fibrinogen antibody (1:1,000 in buffer A; DAKO, Glostrup, Denmark) for 1 h at 22° C. Wells are washed 3 times, 200 μl of a peroxidase substrate [3,3′,5,5′-tetramethylbenzidine (TMB), Sigma-Aldrich] is added, the reaction is terminated after 30 min by acidification with 50 μl 0.5 M H2SO4, and absorbance is determined at 450 nm. For priming experiments the procedure is the same except: 1) αIIbβ3 is allowed to adhere in the presence of either eptifibatide (10 μM), RGDS (10 μM; Rockefeller University Proteomics Resource Center), the Compounds (100 μM), or DMSO (1%); 2) wells are washed 10 times after αIIbβ3 adhesion; and 3) absorbance is determined at 655 nm after 10 min.

purified αIIbβ3 [2] = target: T1, purified αIIbβ3; test: Fibrinogen binding to purified αIIbβ3; conditions: for effect of activating mAb AP5 on fibrinogen binding to purified αIIbβ3 in the presence of the substance: AP5 60 μg/ml
Experimental: as §1

[3] = test system: platelets in citrated whole blood; test: Platelet adhesion under shear stress (cone and plate); type: cell-based, human; conditions: preferred Compound 50 μM, tirofiban 10 μM; 1800 s^−1; n=3
Experimental: Platelet Adhesion Under Shear Stress. A cone and plate system (Diamed, Cressier, Switzerland) is used to assess the effect of the Compounds on platelet deposition under shear stress. 0.25 ml of citrated whole blood is incubated with nothing, DMSO (0.5%), the Compounds (50 μM), or tirofiban (10 μM) for 15 min at 22° C. and placed in polystyrene wells (16 mm diameter, Nunc). A constant uniform shear force of 1800 s^−1 was applied across the well using a teflon cone for 2 min at 22° C. Wells are washed with buffer, fixed with 1% paraformaldehyde, stained with Wright's Stain (Sigma-Aldrich), and analyzed for platelet adhesion using a 20× objective in an inverted microscope (IX51, Olympus, Center Valley, Pa.). Platelet adhesion is assessed by measuring the area occupied by platelets in each of four uniformly selected viewing areas in duplicate wells using image analysis software (SlideBook, Intelligent Imaging Innovations, Denver, Colo.).

[4] = test system: platelets in citrated PRP; test: Platelet aggregation in 96-well plates (secondary screen); type: cell-based, human; conditions: induced by 5 μM ADP; 16.6 μM compound
Experimental: Platelet Preparation from Peripheral Blood. After informed consent is obtained from healthy human donors who have not taken any medication known to inhibit platelet function for at least 7 days, peripheral venous blood is collected via a 19-gauge butterfly needle into tubes containing either a 10% volume of sodium citrate (3.8%), or a 15% volume of Acid-Citrate-Dextrose (ACD-A, 74.8 mM sodium citrate, 38 mM citric acid, 124 mM dextrose). Platelet-rich plasma (PRP) is prepared by centrifugation at 650 g for 4 minutes at 22° C. and is gently removed with a plastic pipette. Platelet-poor plasma (PPP) is prepared by further centrifugation of the remaining blood at 3000 g for 10 minutes at 22° C. Washed platelets (WP) are prepared by treating ACD-anticoagulated PRP with 1 μM PGE1, adding 0.10 vol ACD, and centrifuge at 1200 g for 8 min at 22° C. […] Platelet counts are determined with the automated particle counter (ADVIA 120 hematological analyzer Bayer).
Platelet Aggregation in 96-well Plates. […] A 66.6 μl sample of citrated PRP from volunteer blood donors is added to compound-containing wells, and plates are allowed to equilibrate to 37° C. in the plate reader (SpectraMax) for 10 minutes. […] Absorbance is measured at 563 nm every 10 seconds with shaking for 3 s between reads for 8 minutes. Percent aggregation is calculated as (AbsPRP−Abssample)/(AbsPRP−AbsPPP).

platelets [5] = test: Platelet aggregation in aggregometer; type: cell-based, human; conditions: for IC50: Homo sapiens, Platelet
Experimental: Platelet Preparation from Peripheral Blood. After informed consent is obtained from healthy human donors who have not taken any medication known to inhibit platelet function for at least 7 days, peripheral venous blood is collected via a 19-gauge butterfly needle into tubes containing either a 10% volume of sodium citrate (3.8%), or a 15% volume of Acid-Citrate-Dextrose (ACD-A, 74.8 mM sodium citrate, 38 mM citric acid, 124 mM dextrose). Platelet-rich plasma (PRP) is prepared by centrifugation at 650 g for 4 minutes at 22° C. and is gently removed with a plastic pipette. Platelet-poor plasma (PPP) is prepared by further centrifugation of the remaining blood at 3000 g for 10 minutes at 22° C. Washed platelets (WP) are prepared by treating ACD-anticoagulated PRP with 1 μM PGE1, adding 0.10 vol ACD, and centrifuge at 1200 g for 8 min at 22° C. The platelet pellet is resuspended in HBMT. Platelet counts are determined with the automated particle counter (ADVIA 120 hematological analyzer Bayer).
Platelet Aggregation in Aggregometer. Citrated PRP is incubated with compounds or controls for 15 min 37° C. in 300-500 μl vols in glass aggregometer tubes. Agonists are added after 30 s equilibration in the aggregometer (Kowa) and light transmittance is measured for 8 min. Agonists include ADP, collagen (native type 1 collagen fibrils), restocetin, arachidonic acid, and thrombin receptor activating peptide [TRAP (SFLLRN)].

[6] = target: T2, αIIbβ3-expressing HEK293 cells (Homo sapiens, UniProt P05106+P08514); test: Fluorescent fibrinogen binding to HEK293 cells; type: cell-based; conditions: AP5 60 μg/ml; n=3; read-out: IC50, AP5-induced fibrinogen binding to HEK293 cells
T2 construct: expressed in transfected cells; host or cells: HEK293
Experimental: (§2) Fluorescent Fibrinogen Binding. Washed platelets at 250,000/μl or αIIbβ3-expressing HEK293 cells at 10×10^6/ml in HBMT with 2 mM Ca^2+/1 mM Mg^2+ are incubated with compounds or controls and 200 μg/ml fluorescent fibrinogen (Invitrogen) with or without 60 μg/ml of the activating mAb AP5 for 30 min at 22° C. in the dark. Unbound fibrinogen is removed by centrifugation at 1800 rpm for 3 min and the platelets are resuspended in HBMT before FACS analysis.

[7] = target: T3, HEK293 cells expressing αIIbβ3 (Homo sapiens, UniProt P05106+P08514); test: HEK293 cell adhesion to fibrinogen; type: cell-based; conditions: compound 100 μM, fibrinogen 50 μg/ml, 2 mM Ca2+/1 mM Mg2+, read-out: inhibition of HEK293 cell adhesion to immobilized fibrinogen
T3 construct: expressed in transfected cells; host or cells: HEK293
Experimental: (§3) Platelet and Cell Adhesion. Platelets are prepared from ACD-anticoagulated blood as previously described. Cells, either CS1 (αVβ3-expressing) or HEK293 (αIIbβ3-expressing) are separated from culture media by centrifugation at 200 g, 4 min. Cells are resuspended in HBMT containing 1 mM MgCl2 (CS1 cells) and/or 2 mM CaCl2 (HEK293 cells). Polystyrene 96-well microtiter plates (Nunc) are coated with either fibrinogen (50 μg/ml), vitronectin (5 μg/ml), or collagen (33 μg/ml, rat tail type 1, Becton Dickson) for 1 h, and blocked with HBMT for at least 1 h. Platelets and cells are treated with compounds or control solutions for 15 min at 37° C. before they are added to the microtiter wells. After adhering for 1 h at either 22° C. (platelets) or 37° C. (cells), non-adherent platelets or cells are removed by washing 3 times with HBMT containing the same ion composition as the buffer used for adhesion. Adherent platelets or cells are quantified by their endogenous acid phosphatase activity on p-nitrophenyl phosphate (pNPP) (1 mg/ml in 0.1 M sodium citrate, 0.1% Triton X-100, pH 5.4). In other experiments, 8-chambered glass coverslips (Nunc) are coated with collagen (33 μg/ml) for 1 h at 22° C. Washed platelets are allowed to adhere for 1 h at 22° C. and the coverslips are stained with the Alexa-488-conjugated β3-specific mAb 7H2. […]

platelets [8] = test: Fluorescent fibrinogen binding to platelets; type: cell-based; conditions: Homo sapiens, Platelet; AP5 60 μg/ml; read-out: IC50, fibrinogen binding to platelets induced by activating LIBS mAb AP5
Experimental: as §2

αIIbβ3 = target: T4, αIIbβ3 (Homo sapiens, UniProt P05106+P08514); test: LIBS-specific mAb binding to resting platelets (flow cytometry); type: cell-based; conditions: compound 100 μM
T4 construct: endogenous in cells; host or cells: washed resting platelets from platelet-rich plasma
Experimental: mAb Binding. PRP anticoagulated with ACD is centrifuged at 1200 g for 8 min and is resuspended in HBMT containing 2 mM Ca^2+, 1 mmMg^2+. Platelet count is adjusted to 250,000/μl. Platelets are incubated with the Compounds (100 μM), tirofiban (100 μM), EDTA (10 mM), or 10E5 (10 μg/ml) for 15 min, at 37° C. Samples are incubated with Fluorescently-labeled monoclonal antibodies (PMI-1, LIBS-1, AP5, 7H2, 7E3, or 10E5; Alexa-488-conjugated, Invitrogen) at 20 μl, 5 μg/ml final concentration for 30 min at room temperature in the dark before diluting 1:10 for analysis on a FACSCalibur flow cytometer (Becton Dickson). Antibody binding is reported as the geometric mean fluorescence intensity; nonspecific binding is determined by adding a 50-fold excess of unlabeled antibody before adding labeled antibody.

[9] = test system: αVβ3-expressing CS1 cells; test: CS1 cell adhesion to vitronectin; type: cell-based; conditions: mAbs 20 μg/ml, compound 100 μM; Mg2+
Experimental: as §3

T1 sequence (P08514 32-887 limits assumed): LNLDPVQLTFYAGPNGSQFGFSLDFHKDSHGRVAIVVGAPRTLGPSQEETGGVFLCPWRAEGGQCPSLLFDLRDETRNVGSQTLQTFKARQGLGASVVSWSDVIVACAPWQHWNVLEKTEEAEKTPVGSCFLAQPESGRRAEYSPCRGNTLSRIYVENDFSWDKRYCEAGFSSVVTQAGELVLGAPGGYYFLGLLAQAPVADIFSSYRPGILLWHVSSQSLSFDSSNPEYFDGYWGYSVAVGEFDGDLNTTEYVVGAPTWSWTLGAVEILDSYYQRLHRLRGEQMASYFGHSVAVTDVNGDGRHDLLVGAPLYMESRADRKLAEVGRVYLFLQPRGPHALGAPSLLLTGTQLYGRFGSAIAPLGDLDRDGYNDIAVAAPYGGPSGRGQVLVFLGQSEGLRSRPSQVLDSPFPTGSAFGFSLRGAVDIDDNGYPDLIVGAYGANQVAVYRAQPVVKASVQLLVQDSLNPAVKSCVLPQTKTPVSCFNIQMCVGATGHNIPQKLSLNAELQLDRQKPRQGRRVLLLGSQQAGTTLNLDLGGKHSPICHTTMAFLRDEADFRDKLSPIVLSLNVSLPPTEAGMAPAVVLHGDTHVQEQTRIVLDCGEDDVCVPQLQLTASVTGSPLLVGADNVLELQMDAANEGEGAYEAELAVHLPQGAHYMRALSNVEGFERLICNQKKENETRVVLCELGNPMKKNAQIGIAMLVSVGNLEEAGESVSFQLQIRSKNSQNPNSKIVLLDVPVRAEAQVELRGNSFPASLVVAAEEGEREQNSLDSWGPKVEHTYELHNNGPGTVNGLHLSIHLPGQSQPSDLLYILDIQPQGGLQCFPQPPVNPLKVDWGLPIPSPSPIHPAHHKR
T1 sequence (P08514 891-1039 partner limits assumed): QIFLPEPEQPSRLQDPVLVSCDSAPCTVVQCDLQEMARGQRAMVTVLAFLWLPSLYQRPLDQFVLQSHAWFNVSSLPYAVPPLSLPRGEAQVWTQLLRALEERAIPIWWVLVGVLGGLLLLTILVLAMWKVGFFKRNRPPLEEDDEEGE
T1 sequence (P05106 27-788): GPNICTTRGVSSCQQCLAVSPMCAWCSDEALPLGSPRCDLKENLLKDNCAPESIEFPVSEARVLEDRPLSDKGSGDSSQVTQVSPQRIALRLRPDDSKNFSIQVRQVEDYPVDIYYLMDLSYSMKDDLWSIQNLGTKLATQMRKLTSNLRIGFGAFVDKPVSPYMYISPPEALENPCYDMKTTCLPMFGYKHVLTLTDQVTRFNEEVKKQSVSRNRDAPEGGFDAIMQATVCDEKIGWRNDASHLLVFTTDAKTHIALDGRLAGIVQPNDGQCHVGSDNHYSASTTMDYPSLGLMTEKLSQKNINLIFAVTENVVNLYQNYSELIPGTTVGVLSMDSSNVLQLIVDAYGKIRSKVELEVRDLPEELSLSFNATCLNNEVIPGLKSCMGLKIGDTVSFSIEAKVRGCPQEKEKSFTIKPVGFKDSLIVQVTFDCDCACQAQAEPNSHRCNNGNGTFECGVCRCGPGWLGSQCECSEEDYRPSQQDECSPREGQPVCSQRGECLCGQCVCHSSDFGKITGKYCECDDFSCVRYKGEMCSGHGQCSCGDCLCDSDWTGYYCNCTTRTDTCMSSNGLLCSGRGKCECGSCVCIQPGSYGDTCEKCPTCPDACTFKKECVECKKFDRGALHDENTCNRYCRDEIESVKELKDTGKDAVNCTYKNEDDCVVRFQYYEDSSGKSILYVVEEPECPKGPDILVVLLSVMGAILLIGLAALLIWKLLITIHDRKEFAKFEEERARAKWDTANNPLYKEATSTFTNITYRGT
T4 sequence (P08514 32-887 limits assumed): as the sequence (P08514 32-887 limits assumed) above
T4 sequence (P08514 891-1039 partner limits assumed): as the sequence (P08514 891-1039 partner limits assumed) above
T4 sequence (P05106 27-788): as the sequence (P05106 27-788) above
T3 sequence (P08514 32-887 limits assumed): as the sequence (P08514 32-887 limits assumed) above
T3 sequence (P08514 891-1039 partner limits assumed): as the sequence (P08514 891-1039 partner limits assumed) above
T3 sequence (P05106 27-788): as the sequence (P05106 27-788) above
T2 sequence (P08514 32-887 limits assumed): as the sequence (P08514 32-887 limits assumed) above
T2 sequence (P08514 891-1039 partner limits assumed): as the sequence (P08514 891-1039 partner limits assumed) above
T2 sequence (P05106 27-788): as the sequence (P05106 27-788) above

N=C(N)NCCCC[C@@H]1NC(=O)CCSSC[C@@H](C(N)=O)NC(=O)[C@@H]2CCCN2C(=O)[C@H](Cc2c[nH]c3ccccc23)NC(=O)[C@H](CC(=O)O)NC(=O)CNC1=O [eptifibatide] ([Mpa][hArg]GDWPC-NH2; disulfide 1-7)
fibrinogen binding after transient exposure of αIIbβ3 (priming), compared to untreated αIIbβ3 (purified αIIbβ3 [1]): 150±31%

CCCCS(=O)(=O)N[C@@H](Cc1ccc(OCCCCC2CCNCC2)cc1)C(=O)O [tirofiban, reference compound]
effect of activating mAb AP5 on fibrinogen binding to purified αIIbβ3 in the presence of the substance (purified αIIbβ3 [2]): does not increase
fibrinogen binding to purified αIIbβ3 in the presence of the substance (purified αIIbβ3 [2]; microtiter plates): blocked
inhibition of platelet deposition under shear, area occupied by platelets vs DMSO [3]: 99±1%

CCc1nn2c(=O)cc(N3CCNCC3)nc2s1 [Preferred Compound, 2-ethyl-7-(piperazin-1-yl)-5H-[1,3,4]thiadiazolo-[3,2-a]pyrimidin-5-one]
fibrinogen binding after transient exposure of αIIbβ3 (priming), compared to untreated αIIbβ3 (purified αIIbβ3 [1]): does not increase
reduction of the initial slope of aggregation [4]: 84%
effect of activating mAb AP5 on fibrinogen binding to purified αIIbβ3 in the presence of the substance (purified αIIbβ3 [2]): does not increase
fibrinogen binding to purified αIIbβ3 in the presence of the substance (purified αIIbβ3 [2]; microtiter plates): blocked
IC50 (purified αIIbβ3 [2]; microtiter plates, n=3): 1.6 ± 0.4 µM
IC50 (platelets [5]; induced by 5 μM ADP, read-out: IC50, aggregation of platelets in citrated PRP): 13 ± 5 µM
IC50 (platelets [5]; induced by 5 μM TRAP, n=3, read-out: IC50, aggregation of washed platelets): 3.4 ± 0.4 µM
IC50 (platelets [5]; induced by 5 μM TRAP, read-out: IC50, aggregation of platelets in citrated PRP): 29 ± 6 µM
IC50 (platelets [5]; induced by 1 mM arachidonic acid, read-out: IC50, aggregation of platelets in citrated PRP): 8.5 ± 5.7 µM
platelet aggregation in PRP induced by collagen (platelets [5]; compound 100 μM, collagen 2 μg/ml): completely inhibits
later phase of ristocetin-induced aggregation of PRP (platelets [5]; ristocetin 1.8 mg/ml, data not shown): does inhibit
initial slope (initial wave) of ristocetin-induced agglutination/aggregation of PRP (platelets [5]; ristocetin 1.8 mg/ml, mAb 6D1 20 μg/ml): does not inhibit
IC50 [6]: 21 ± 0.3 µM
inhibition of platelet deposition under shear, area occupied by platelets vs DMSO [3]: 87±10%
inhibition at 100 µM [7]: 53 ± 4%
IC50 (platelets [8]): 29 ± 2 µM
binding of β3 LIBS-specific mAb AP5 compared with untreated platelets (αIIbβ3): do not differ significantly
binding of β3 LIBS-specific mAb LIBS-1 compared with untreated platelets (αIIbβ3): do not differ significantly
mAb Binding (% of tirofiban), AP5 (β3) (αIIbβ3; resting washed platelets): 26 ± 5.9 % of tirofiban
mAb Binding (% of tirofiban), LIBS-1 (β3) (αIIbβ3; resting washed platelets): 5.7 ± 6.3 % of tirofiban
mAb Binding (% of tirofiban), PMI-1 (αIIb) (αIIbβ3; resting washed platelets): 44 ± 8.7 % of tirofiban
mAb Binding (% of tirofiban), PMI-1 (αIIb) (αIIbβ3; resting washed platelets, listed as 2-ethyl-7-(piperazin-1-yl)-5H-[1,3,4]thiadiazolo-[3,2-a]pyrimidin-5-one): 44 % of tirofiban
CS1 cell adhesion to immobilized vitronectin [9]: adhere

RGDS
fibrinogen binding after transient exposure of αIIbβ3 (priming), compared to untreated αIIbβ3 (purified αIIbβ3 [1]): 130±7%
